# Active and inactive are the calls of the source. The calls are words filed in the database; no cut-off is given here.
# System: Homo sapiens
# Assay: Antitumor activity against human A375M cells xenografted mouse model assessed as partial tumor regression at 100 mg/kg, po qd for 21 days
# Format: functional, organism-based
# Set-up: dose 100 mg/kg
# Details: not given
row,Structure (SMILES),Activity
1,CN(C)Cc1cc(C(=O)N[C@@H]2CCc3ccc(Oc4ccnc5c4CCC(=O)N5)cc3C2)cc(C(F)(F)F)c1,Active

# System: Mus musculus
# Assay: Inhibition of ERK phosphorylation in human A375M cells xenografted in mouse at 100 mg/kg, po administered as single dose in 10% HPbCD measured 4 hrs post dose by Li-Cor quantitative Western blot analysis relative to control
# Format: functional
# Details: not given
row,Structure (SMILES),inhibition in vivo at 100 mg/kg [%]
1,CN(C)Cc1cc(C(=O)N[C@@H]2CCc3ccc(Oc4ccnc5c4CCC(=O)N5)cc3C2)cc(C(F)(F)F)c1,93

# System: not listed separately
# Assay: Inhibition of MEK
# Details: not given
row,IC50 [nM],Structure (SMILES)
1,> 10000,CN(C)Cc1cc(C(=O)N[C@@H]2CCc3ccc(Oc4ccnc5c4CCC(=O)N5)cc3C2)cc(C(F)(F)F)c1
2,1400,CC(C)(N)c1cc(C(=O)N[C@@H]2CCc3ccc(Oc4ccnc5c4CCC(=O)N5)cc3C2)cc(C(F)(F)F)c1

# System: Mus musculus
# Assay: Inhibition of ERK phosphorylation in human A375M cells xenografted in mouse at 75 mg/kg, po administered as single dose in 10% HPbCD measured 8 hrs post dose by Li-Cor quantitative Western blot analysis relative to control
# Format: functional
# Details: not given
row,Structure (SMILES),inhibition in vivo at 75 mg/kg [%]
1,CC(C)(N)c1cc(C(=O)N[C@@H]2CCc3ccc(Oc4ccnc5c4CCC(=O)N5)cc3C2)cc(C(F)(F)F)c1,90

# System: not listed separately
# Assay: Inhibition of PDGFR
# Details: not given
row,IC50 [nM],Structure (SMILES)
1,1100,CN(C)Cc1cc(C(=O)N[C@@H]2CCc3ccc(Oc4ccnc5c4CCC(=O)N5)cc3C2)cc(C(F)(F)F)c1
2,47,CC(C)(N)c1cc(C(=O)N[C@@H]2CCc3ccc(Oc4ccnc5c4CCC(=O)N5)cc3C2)cc(C(F)(F)F)c1

# System: Mus musculus
# Assay: Inhibition of ERK phosphorylation in human A375M cells xenografted in mouse at 75 mg/kg, po administered as single dose in 10% HPbCD measured 24 hrs post dose by Li-Cor quantitative Western blot analysis relative to control
# Format: functional
# Details: not given
row,Structure (SMILES),inhibition in vivo at 75 mg/kg [%]
1,CC(C)(N)c1cc(C(=O)N[C@@H]2CCc3ccc(Oc4ccnc5c4CCC(=O)N5)cc3C2)cc(C(F)(F)F)c1,83

# System: not listed separately
# Assay: AUC (0 to 24 hrs) in mouse at 10 mg, po in 20% HPbCD vehicle
# Format: ADME, organism-based
# Set-up: dose 10 mg, time < 24 hr, route oral
# Details: plasma
row,AUC(0-t) at 24 h [µM·h],Structure (SMILES)
1,2.87,CN(C)Cc1cc(NC(=O)[C@H]2CCc3ccc(Oc4ccnc(NC(=O)C5CC5)c4)cc3C2)cc(C(F)(F)F)c1
2,0.58,NCc1cc(NC(=O)C2CCc3ccc(Oc4ccnc(NC(=O)C5CC5)c4)cc3C2)cc(C(F)(F)F)c1 (stereo unspecified)

# System: not listed separately
# Assay: Plasma concentration in mouse xenografted with human A375M cells at 100 mg/kg, po administered as single dose in 10% HPbCD measured 24 hrs post dose by LC/MS/MS
# Format: ADME, organism-based
# Set-up: dose 100 mg/kg, route oral
# Details: not given
row,concentration at 24 h [µM],Structure (SMILES)
1,0.4,CN(C)Cc1cc(C(=O)N[C@@H]2CCc3ccc(Oc4ccnc5c4CCC(=O)N5)cc3C2)cc(C(F)(F)F)c1

# System: Homo sapiens
# Assay: Antitumor activity against human A375M cells xenografted mouse model assessed as partial tumor regression at 75 mg/kg, po qd for 21 days
# Format: functional, organism-based
# Set-up: dose 75 mg/kg
# Details: not given
row,Structure (SMILES),Activity
1,CC(C)(N)c1cc(C(=O)N[C@@H]2CCc3ccc(Oc4ccnc5c4CCC(=O)N5)cc3C2)cc(C(F)(F)F)c1,Active

# System: not listed separately
# Assay: Oral bioavailability in mouse at 10 mg
# Format: ADME, organism-based
# Details: in vivo
row,bioavailability [%],Structure (SMILES)
1,100,CN(C)Cc1cc(C(=O)N[C@@H]2CCc3ccc(Oc4ccnc5c4CCC(=O)N5)cc3C2)cc(C(F)(F)F)c1
2,85,CC(C)(N)c1cc(C(=O)N[C@@H]2CCc3ccc(Oc4ccnc5c4CCC(=O)N5)cc3C2)cc(C(F)(F)F)c1
3,27,CN(C)Cc1cc(NC(=O)[C@H]2CCc3ccc(Oc4ccnc(NC(=O)C5CC5)c4)cc3C2)cc(C(F)(F)F)c1
4,1.9,NCc1cc(NC(=O)C2CCc3ccc(Oc4ccnc(NC(=O)C5CC5)c4)cc3C2)cc(C(F)(F)F)c1 (stereo unspecified)

# System: not listed separately
# Assay: Plasma concentration in mouse xenografted with human A375M cells at 100 mg/kg, po administered as single dose in 10% HPbCD measured 8 hrs post dose by LC/MS/MS
# Format: ADME, organism-based
# Set-up: dose 100 mg/kg, route oral
# Details: not given
row,concentration at 8 h [µM],Structure (SMILES)
1,29,CN(C)Cc1cc(C(=O)N[C@@H]2CCc3ccc(Oc4ccnc5c4CCC(=O)N5)cc3C2)cc(C(F)(F)F)c1

# System: not listed separately
# Assay: Plasma concentration in mouse xenografted with human A375M cells at 100 mg/kg, po administered as single dose in 10% HPbCD measured 4 hrs post dose by LC/MS/MS
# Format: ADME, organism-based
# Set-up: dose 100 mg/kg, route oral
# Details: not given
row,concentration at 4 h [µM],Structure (SMILES)
1,28,CN(C)Cc1cc(C(=O)N[C@@H]2CCc3ccc(Oc4ccnc5c4CCC(=O)N5)cc3C2)cc(C(F)(F)F)c1

# System: Mus musculus
# Assay: Inhibition of ERK phosphorylation in human A375M cells xenografted in mouse at 100 mg/kg, po administered as single dose in 10% HPbCD measured 8 hrs post dose by Li-Cor quantitative Western blot analysis relative to control
# Format: functional
# Details: not given
row,Structure (SMILES),inhibition in vivo at 100 mg/kg [%]
1,CN(C)Cc1cc(C(=O)N[C@@H]2CCc3ccc(Oc4ccnc5c4CCC(=O)N5)cc3C2)cc(C(F)(F)F)c1,92

# System: Mus musculus
# Assay: Inhibition of ERK phosphorylation in human A375M cells xenografted in mouse at 100 mg/kg, po administered as single dose in 10% HPbCD measured 24 hrs post dose by Li-Cor quantitative Western blot analysis relative to control
# Format: functional
# Details: not given
row,Structure (SMILES),inhibition in vivo at 100 mg/kg [%]
1,CN(C)Cc1cc(C(=O)N[C@@H]2CCc3ccc(Oc4ccnc5c4CCC(=O)N5)cc3C2)cc(C(F)(F)F)c1,72

# Biological target: T1, Serine/threonine-protein kinase B-raf (Homo sapiens, UniProt P15056, V600E)
# Assay: Inhibition of raf kinase in human A375 cells assessed as decrease in MEK-mediated ERK phosphorylation after 3 hrs using 3,3',5,5'-tetramethylbenzidine liquid substrate system
# Format: cell-based
# Details: a-375
# T1 sequence (P15056 2-766 V600E limits assumed): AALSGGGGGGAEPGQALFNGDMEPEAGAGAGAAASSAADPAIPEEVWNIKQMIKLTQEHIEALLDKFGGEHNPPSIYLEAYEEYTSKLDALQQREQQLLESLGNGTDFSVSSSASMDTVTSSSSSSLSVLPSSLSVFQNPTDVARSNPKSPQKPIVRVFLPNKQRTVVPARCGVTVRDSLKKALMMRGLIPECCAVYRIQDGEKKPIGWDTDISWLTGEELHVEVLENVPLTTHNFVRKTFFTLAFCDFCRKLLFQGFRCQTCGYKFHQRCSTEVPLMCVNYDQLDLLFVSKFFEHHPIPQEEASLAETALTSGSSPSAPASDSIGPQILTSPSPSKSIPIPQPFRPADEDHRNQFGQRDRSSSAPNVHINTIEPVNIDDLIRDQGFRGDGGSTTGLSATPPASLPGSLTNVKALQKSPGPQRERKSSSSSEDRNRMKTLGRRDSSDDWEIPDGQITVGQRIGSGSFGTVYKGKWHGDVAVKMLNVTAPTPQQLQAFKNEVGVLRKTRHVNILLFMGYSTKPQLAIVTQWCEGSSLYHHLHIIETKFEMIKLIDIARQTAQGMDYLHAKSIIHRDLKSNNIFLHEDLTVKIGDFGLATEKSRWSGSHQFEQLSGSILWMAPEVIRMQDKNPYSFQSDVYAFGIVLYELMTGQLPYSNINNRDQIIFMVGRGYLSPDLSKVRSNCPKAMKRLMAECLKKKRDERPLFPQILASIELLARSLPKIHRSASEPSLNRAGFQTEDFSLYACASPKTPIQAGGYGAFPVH
row,IC50 [nM],Structure (SMILES)
1,130,CN(C)Cc1cc(NC(=O)[C@H]2CCc3ccc(Oc4ccnc(NC(=O)C5CC5)c4)cc3C2)cc(C(F)(F)F)c1
2,150,NCc1cc(NC(=O)C2CCc3ccc(Oc4ccnc(NC(=O)C5CC5)c4)cc3C2)cc(C(F)(F)F)c1 (stereo unspecified)

# System: Mus musculus
# Assay: Inhibition of ERK phosphorylation in human A375M cells xenografted in mouse at 75 mg/kg, po administered as single dose in 10% HPbCD measured 4 hrs post dose by Li-Cor quantitative Western blot analysis relative to control
# Format: functional
# Details: not given
row,Structure (SMILES),inhibition in vivo at 75 mg/kg [%]
1,CC(C)(N)c1cc(C(=O)N[C@@H]2CCc3ccc(Oc4ccnc5c4CCC(=O)N5)cc3C2)cc(C(F)(F)F)c1,87

# System: not listed separately
# Assay: Plasma concentration in mouse xenografted with human A375M cells at 75 mg/kg, po administered as single dose in 10% HPbCD measured 4 hrs post dose by LC/MS/MS
# Format: ADME, organism-based
# Set-up: dose 75 mg/kg, route oral
# Details: not given
row,concentration at 4 h [µM],Structure (SMILES)
1,23,CC(C)(N)c1cc(C(=O)N[C@@H]2CCc3ccc(Oc4ccnc5c4CCC(=O)N5)cc3C2)cc(C(F)(F)F)c1

# System: not listed separately
# Assay: Plasma concentration in mouse xenografted with human A375M cells at 75 mg/kg, po administered as single dose in 10% HPbCD measured 8 hrs post dose by LC/MS/MS
# Format: ADME, organism-based
# Set-up: dose 75 mg/kg, route oral
# Details: not given
row,concentration at 8 h [µM],Structure (SMILES)
1,27,CC(C)(N)c1cc(C(=O)N[C@@H]2CCc3ccc(Oc4ccnc5c4CCC(=O)N5)cc3C2)cc(C(F)(F)F)c1

# System: not listed separately
# Assay: Plasma concentration in mouse xenografted with human A375M cells at 75 mg/kg, po administered as single dose in 10% HPbCD measured 24 hrs post dose by LC/MS/MS
# Format: ADME, organism-based
# Set-up: dose 75 mg/kg, route oral
# Details: not given
row,concentration at 24 h [µM],Structure (SMILES)
1,3,CC(C)(N)c1cc(C(=O)N[C@@H]2CCc3ccc(Oc4ccnc5c4CCC(=O)N5)cc3C2)cc(C(F)(F)F)c1

# Biological target: T1, Serine/threonine-protein kinase B-raf
# Details: not given
row,IC50 [nM],Structure (SMILES)
1,4,CN(C)Cc1cc(NC(=O)[C@H]2CCc3ccc(Oc4ccnc(NC(=O)C5CC5)c4)cc3C2)cc(C(F)(F)F)c1
2,8,NCc1cc(NC(=O)C2CCc3ccc(Oc4ccnc(NC(=O)C5CC5)c4)cc3C2)cc(C(F)(F)F)c1 (stereo unspecified)

# System: Mus musculus
# Assay: Plasma clearance in mouse at 1 mg/kg, iv and 10 mg, po in 10% HPbCD vehicle
# Format: ADME, organism-based
# Set-up: dose 1 mg/kg, route oral
# Details: in vivo
row,CL [mL/min/kg],Structure (SMILES)
1,3.83,CN(C)Cc1cc(C(=O)N[C@@H]2CCc3ccc(Oc4ccnc5c4CCC(=O)N5)cc3C2)cc(C(F)(F)F)c1
2,7.33,CC(C)(N)c1cc(C(=O)N[C@@H]2CCc3ccc(Oc4ccnc5c4CCC(=O)N5)cc3C2)cc(C(F)(F)F)c1

# System: Mus musculus
# Assay: Volume of distribution at steady state in mouse at 1 mg/kg, iv or 10 mg, po
# Format: ADME, organism-based
# Set-up: dose 1 mg/kg, route oral
# Details: in vivo
row,Vdss [L/kg],Structure (SMILES)
1,0.75,CN(C)Cc1cc(C(=O)N[C@@H]2CCc3ccc(Oc4ccnc5c4CCC(=O)N5)cc3C2)cc(C(F)(F)F)c1
2,3.93,CC(C)(N)c1cc(C(=O)N[C@@H]2CCc3ccc(Oc4ccnc5c4CCC(=O)N5)cc3C2)cc(C(F)(F)F)c1
3,6.07,CN(C)Cc1cc(NC(=O)[C@H]2CCc3ccc(Oc4ccnc(NC(=O)C5CC5)c4)cc3C2)cc(C(F)(F)F)c1
4,6.4,NCc1cc(NC(=O)C2CCc3ccc(Oc4ccnc(NC(=O)C5CC5)c4)cc3C2)cc(C(F)(F)F)c1 (stereo unspecified)

# System: not listed separately
# Assay: Plasma clearance in mouse at 10 mg, po in 20% HPbCD vehicle
# Format: ADME, organism-based
# Details: not given
row,CL/F [mL/min/kg],Structure (SMILES)
1,23.5,CN(C)Cc1cc(NC(=O)[C@H]2CCc3ccc(Oc4ccnc(NC(=O)C5CC5)c4)cc3C2)cc(C(F)(F)F)c1
2,6.67,NCc1cc(NC(=O)C2CCc3ccc(Oc4ccnc(NC(=O)C5CC5)c4)cc3C2)cc(C(F)(F)F)c1 (stereo unspecified)

# System: Plasma
# Assay: Plasma concentration in mouse assessed as (R)-3-((methyl amino)methyl)-N-(7-(7-oxo-5,6,7,8-tetrahydro-1,8-naphthyridin-4-yloxyl)-1,2,3,4-tetrahydronaphthalen-2-yl )-5-(trifluoromethyl)benzamide at 10 mg, po
# Format: ADME, organism-based
# Details: in vivo
row,Drug uptake [%],Structure (SMILES)
1,30,CN(C)Cc1cc(C(=O)N[C@@H]2CCc3ccc(Oc4ccnc5c4CCC(=O)N5)cc3C2)cc(C(F)(F)F)c1

# System: not listed separately
# Assay: AUC (0 to 24 hrs) in mouse at 10 mg, po in 10% HPbCD vehicle
# Format: ADME, organism-based
# Set-up: time < 24 hr, dose 10 mg, route oral
# Details: plasma
row,AUC(0-t) at 24 h [µM·h],Structure (SMILES)
1,98.6,CN(C)Cc1cc(C(=O)N[C@@H]2CCc3ccc(Oc4ccnc5c4CCC(=O)N5)cc3C2)cc(C(F)(F)F)c1
2,35.9,CC(C)(N)c1cc(C(=O)N[C@@H]2CCc3ccc(Oc4ccnc5c4CCC(=O)N5)cc3C2)cc(C(F)(F)F)c1

# Biological target: RAF proto-oncogene serine/threonine-protein kinase (Homo sapiens, UniProt P04049)
# Assay: Inhibition of C-Raf assessed as reduction in [33P]ATP incorporation into biotinylated substrate peptide after 3 hrs by flash plate assay
# Details: not given
# RAF proto-oncogene serine/threonine-protein kinase, sequence (P04049 whole entry): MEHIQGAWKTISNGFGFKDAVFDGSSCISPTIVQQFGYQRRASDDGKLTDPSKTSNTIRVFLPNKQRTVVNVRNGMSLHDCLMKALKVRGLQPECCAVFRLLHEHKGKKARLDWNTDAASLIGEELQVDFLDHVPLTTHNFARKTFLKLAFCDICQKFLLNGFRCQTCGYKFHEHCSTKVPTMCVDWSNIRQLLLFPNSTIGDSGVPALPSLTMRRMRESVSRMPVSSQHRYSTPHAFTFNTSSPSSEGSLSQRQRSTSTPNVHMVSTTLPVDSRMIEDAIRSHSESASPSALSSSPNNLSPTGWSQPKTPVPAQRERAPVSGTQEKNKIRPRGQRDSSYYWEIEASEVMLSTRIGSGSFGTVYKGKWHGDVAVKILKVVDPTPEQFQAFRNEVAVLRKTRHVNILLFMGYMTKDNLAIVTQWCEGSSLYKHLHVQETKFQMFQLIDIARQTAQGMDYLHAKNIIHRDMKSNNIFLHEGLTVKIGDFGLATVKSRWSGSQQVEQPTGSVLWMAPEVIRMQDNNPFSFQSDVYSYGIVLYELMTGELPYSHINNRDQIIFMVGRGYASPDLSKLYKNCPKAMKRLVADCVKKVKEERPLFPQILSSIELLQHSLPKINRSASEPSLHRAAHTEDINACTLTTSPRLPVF
row,IC50 [nM],Structure (SMILES)
1,3.3,CN(C)Cc1cc(NC(=O)[C@H]2CCc3ccc(Oc4ccnc(NC(=O)C5CC5)c4)cc3C2)cc(C(F)(F)F)c1
2,6.2,NCc1cc(NC(=O)C2CCc3ccc(Oc4ccnc(NC(=O)C5CC5)c4)cc3C2)cc(C(F)(F)F)c1 (stereo unspecified)

# Reference: ChEMBL document CHEMBL1687927, “Design and optimization of potent and orally bioavailable tetrahydronaphthalene Raf inhibitors” (J Med Chem, 2011)
